Measurements taken from patent publication US8501754B2, “Quinazolinamide derivatives” (MERCK PATENT GmbH, priority 2007, dated 2013).

biological target: Recombinant human HSP90a (Homo sapiens, UniProt P07900); experiment: radioligand filter binding test ([3H]17AAG competition) for HSP90 inhibition; conditions: competition with [3H]17AAG 0.08 μM, HSP90 1.5 μg/assay, 22° C., 30 min
Text: Test Method for the Measurement of HSP90 Inhibitors
The binding of geldanamycin or 17-allylamino-17-demethoxygeldanamycin (17AAG) to HSP90 and competitive inhibition thereof can be utilized in order to determine the inhibitory activity of the compounds according to the invention (Carreras et al. 2003, Chiosis et al. 2002).
In the specific case, a radioligand filter binding test is used. The radioligand used here is tritium-labelled 17-allylaminogeldanamycin, [3H]17AAG. This filter binding test allows a targeted search for inhibitors which interfere with the ATP binding site.
Recombinant human HSP90a (E. coli expressed, 95% purity);
[3H]17AAG (17-allylaminogeldanamycin, [allylamino-2,3-^3H. Specific activity: 1.11×10^12 Bq/mmol (Moravek, MT-1717);
HEPES filter buffer (50 mM HEPES, pH 7.0, 5 mM MgCl2, BSA 0.01%) Multiscreen FB (1 μm) filter plate (Millipore, MAFBNOB 50).
The 96-well microtitre filter plates are firstly irrigated and coated with 0.1% of polyethylenimine.
The test is carried out under the following conditions:
Reaction temperature 22° C.
Reaction time: 30 min., shaking at 800 rpm
50 mM HEPES HCl, pH 7.0, 5 mM MgCl2, 0.01% (w/v) of BSA
At the end of the reaction, the supernatant in the filter plate is removed by suction with the aid of a vacuum manifold (Multiscreen Separation System, Millipore), and the filter is washed twice.
The filter plates are then measured in a beta counter (Microbeta, Wallac) with scintillator (Microscint 20, Packard).
“% of control” is determined from the “counts per minutes” values, and the IC-50 value of a compound is calculated therefrom.

Structure (SMILES)	IC50 [nM]
Nc1nc(C(=O)N2Cc3ccccc3C2)c2cc(C#CCCO)ccc2n1 [Compound A997]	10 to 1000
CN1CCN(Cc2cc(O)ccc2-c2ccc3nc(N)nc(C(=O)N4Cc5ccccc5C4)c3c2)CC1 [Compound A1002]	10 to 1000
Nc1nc(C(=O)N2Cc3ccccc3C2)c2cc(-c3ccc(O)cc3CO)ccc2n1 [Compound A1006]	10 to 1000
Nc1nc(C(=O)N2Cc3ccccc3C2)c2cc(-c3ccccc3C(=O)N3CCNCC3)ccc2n1 [Compound A1007]	10 to 1000

Continued, values first:

IC50 [nM]	Structure (SMILES)
10 to 1000	CCNCc1ccccc1-c1ccc2nc(N)nc(C(=O)N3Cc4ccccc4C3)c2c1 [Compound A978]
10 to 1000	CN1CCN(S(=O)(=O)c2ccccc2-c2ccc3nc(N)nc(C(=O)N4Cc5ccccc5C4)c3c2)CC1 [Compound A980, {2-amino-6-[2-(4-methylpiperazine-1-sulfonyl)phenyl]quinazolin-4-yl}-(1,3-dihydroisoindol-2-yl)methanone]
10 to 1000	Nc1nc(C(=O)N2Cc3ccccc3C2)c2cc(-c3ccccc3S(=O)(=O)N3CCNCC3)ccc2n1 [Compound A981]
10 to 1000	CN(C)CCN(C)S(=O)(=O)c1ccccc1-c1ccc2nc(N)nc(C(=O)N3Cc4ccccc4C3)c2c1 [Compound A982]
10 to 1000	CN(C)CCOc1ccccc1-c1ccc2nc(N)nc(C(=O)N3Cc4ccccc4C3)c2c1 [Compound A986, {2-amino-6-[2-(2-dimethylaminoethoxy)phenyl]quinazolin-4-yl}-(1,3-dihydroisoindol-2-yl)methanone]
